Measurements published in ChEMBL document CHEMBL5715949, “Discovery of a selective irreversible BMX inhibitor for prostate cancer” (ACS Chem Biol, 2013).
The source made the active and inactive calls. The rule behind the calls is not given here.

What was measured:
[1] = target: Phosphatidylinositol 5-phosphate 4-kinase type-2 beta (Homo sapiens) (UniProt P78356); assay: Inhibition of PIP5K2B (unknown origin) assessed as remaining activity at 1 uM by Kinome scan method relative to control
[2] = target: Insulin receptor-related protein (Homo sapiens) (UniProt P14616); assay: Inhibition of INSRR (unknown origin) assessed as remaining activity at 1 uM by Kinome scan method relative to control
[3] = target: Tyrosine-protein kinase Fes/Fps (Homo sapiens) (UniProt P07332); assay: Inhibition of FES (unknown origin) assessed as remaining activity at 1 uM by Kinome scan method relative to control
[4] = Down regulation of BMX protein expression in human RV-1 cells expressing wild type BMX assessed protein expression level at 2.5 uM pre incubated for 4 hrs followed by compound wash out and additon of CHX and measured after 24 hrs by immunoblot analysis (reference value: 0.98 to 1.01); assay type: functional
[5] = target: Proto-oncogene tyrosine-protein kinase receptor Ret (Homo sapiens) (UniProt P07949); assay: Inhibition of RET (unknown origin) assessed as remaining activity at 1 uM by Kinome scan method relative to control
[6] = test system: Proto-oncogene tyrosine-protein kinase receptor Ret (Homo sapiens), P07949 [V804M]; assay: Inhibition of RET V804M (unknown origin) assessed as remaining activity at 1 uM by Kinome scan method relative to control
[7] = target: Serine/threonine-protein kinase 10 (Homo sapiens) (UniProt O94804); assay: Inhibition of LOK (unknown origin) assessed as remaining activity at 1 uM by Kinome scan method relative to control
[8] = target: Serine/threonine-protein kinase ULK1 (Homo sapiens) (UniProt O75385); assay: Inhibition of ULK1 (unknown origin) assessed as remaining activity at 1 uM by Kinome scan method relative to control
RV-1 = assay: Antiproliferative activity against human RV-1 cells assessed as reduction in cell viability at 500 to 2500 nM incubated for 5 days in presence of MK2206 by CellTiter-Glo assay; assay type: functional, cell-based; conditions: dose 500-2500 nM, time 5.0 day
[9] = target: Myosin light chain kinase 2, skeletal/cardiac muscle (Homo sapiens) (UniProt Q9H1R3); assay: Inhibition of MYLK2 (unknown origin) assessed as remaining activity at 1 uM by Kinome scan method relative to control
[10] = target: Phosphatidylinositol 4,5-bisphosphate 3-kinase catalytic subunit beta isoform (Homo sapiens) (UniProt P42338); assay: Inhibition of PIK3CB (unknown origin) assessed as remaining activity at 1 uM by Kinome scan method relative to control
[11] = test system: Phosphatidylinositol 4,5-bisphosphate 3-kinase catalytic subunit alpha isoform (Homo sapiens), P42336 [H1047Y]; assay: Inhibition of PIK3CA H1047Y mutant (unknown origin) assessed as remaining activity at 1 uM by Kinome scan method relative to control
[12] = target: Activin receptor type-2A (Homo sapiens) (UniProt P27037); assay: Inhibition of ACVR2A (unknown origin) assessed as remaining activity at 1 uM by Kinome scan method relative to control
[13] = target: Ephrin type-B receptor 2 (Homo sapiens) (UniProt P29323); assay: Inhibition of EPHB2 (unknown origin) assessed as remaining activity at 1 uM by Kinome scan method relative to control
[14] = target: Ribosomal protein S6 kinase alpha-4 (Homo sapiens) (UniProt O75676); assay: Inhibition of N-terminal kinase domain RPS6KA4 (unknown origin) assessed as remaining activity at 1 uM by Kinome scan method relative to control
[15] = target: Serine/threonine-protein kinase tousled-like 1 (Homo sapiens) (UniProt Q9UKI8); assay: Inhibition of TLK1 (unknown origin) assessed as remaining activity at 1 uM by Kinome scan method relative to control
[16] = target: Vascular endothelial growth factor receptor 2 (Homo sapiens) (UniProt P35968); assay: Inhibition of VEGFR2 (unknown origin) assessed as remaining activity at 1 uM by Kinome scan method relative to control
[17] = target: Protein kinase C eta type (Homo sapiens) (UniProt P24723); assay: Inhibition of PRKCH (unknown origin) assessed as remaining activity at 1 uM by Kinome scan method relative to control
[18] = test system: Mast/stem cell growth factor receptor Kit (Homo sapiens), P10721 [D816V]; assay: Inhibition of KIT D816V mutant (unknown origin) assessed as remaining activity at 1 uM by Kinome scan method relative to control
[19] = target: Protein kinase C delta type (Homo sapiens) (UniProt Q05655); assay: Inhibition of PRKCD (unknown origin) assessed as remaining activity at 1 uM by Kinome scan method relative to control
[20] = target: Megakaryocyte-associated tyrosine-protein kinase (Homo sapiens) (UniProt P42679); assay: Inhibition of CTK (unknown origin) assessed as remaining activity at 1 uM by Kinome scan method relative to control
[21] = test system: Hepatocyte growth factor receptor (Homo sapiens), P08581 [M1250T]; assay: Inhibition of MET M1250T mutant (unknown origin) assessed as remaining activity at 1 uM by Kinome scan method relative to control
[22] = target: Myosin-IIIb (Homo sapiens) (UniProt Q8WXR4); assay: Inhibition of MYO3B (unknown origin) assessed as remaining activity at 1 uM by Kinome scan method relative to control
BaF3 = assay: Antiproliferative activity against mouse BaF3 cells expressing TEL-fused BMX Cys496Ser assessed growth inhibition incubated for 2 to 5 days by CellTiter-Glo assay; assay type: functional, cell-based
[23] = Inhibition of PI3K/AKT/mTOR signalling pathway in human RV-1 cells assessed as decrease in 4EBP phosphorylation at T37/46 residue at 2.5 uM incubated for 5 days in presence of MK2206 by immunoblot analysis; assay type: cell-based; conditions: time 5.0 day
[24] = target: 5'-AMP-activated protein kinase catalytic subunit alpha-2 (Homo sapiens) (UniProt P54646); assay: Inhibition of AMPK-alpha2 (unknown origin) assessed as remaining activity at 1 uM by Kinome scan method relative to control
[25] = target: Platelet-derived growth factor receptor alpha (Homo sapiens) (UniProt P16234); assay: Inhibition of PDGFRalpha (unknown origin) assessed as remaining activity at 1 uM by Kinome scan method relative to control
[26] = test system: Mast/stem cell growth factor receptor Kit (Homo sapiens), P10721 [A829P]; assay: Inhibition of KIT A829P mutant (unknown origin) assessed as remaining activity at 1 uM by Kinome scan method relative to control
[27] = target: STE20/SPS1-related proline-alanine-rich protein kinase (Homo sapiens) (UniProt Q9UEW8); assay: Inhibition of STK39 (unknown origin) assessed as remaining activity at 1 uM by Kinome scan method relative to control
[28] = target: Serine/threonine-protein kinase MARK2 (Homo sapiens) (UniProt Q7KZI7); assay: Inhibition of MARK2 (unknown origin) assessed as remaining activity at 1 uM by Kinome scan method relative to control
[29] = Inhibition of PI3K/AKT/mTOR signalling pathway in human RV-1 cells assessed as decrease in 4EBP phosphorylation at T37/46 residue at 2.5 uM incubated for 4 hrs by immunoblot analysis; assay type: cell-based

Platelet-derived growth factor receptor alpha (Homo sapiens), sequence (P16234 whole entry): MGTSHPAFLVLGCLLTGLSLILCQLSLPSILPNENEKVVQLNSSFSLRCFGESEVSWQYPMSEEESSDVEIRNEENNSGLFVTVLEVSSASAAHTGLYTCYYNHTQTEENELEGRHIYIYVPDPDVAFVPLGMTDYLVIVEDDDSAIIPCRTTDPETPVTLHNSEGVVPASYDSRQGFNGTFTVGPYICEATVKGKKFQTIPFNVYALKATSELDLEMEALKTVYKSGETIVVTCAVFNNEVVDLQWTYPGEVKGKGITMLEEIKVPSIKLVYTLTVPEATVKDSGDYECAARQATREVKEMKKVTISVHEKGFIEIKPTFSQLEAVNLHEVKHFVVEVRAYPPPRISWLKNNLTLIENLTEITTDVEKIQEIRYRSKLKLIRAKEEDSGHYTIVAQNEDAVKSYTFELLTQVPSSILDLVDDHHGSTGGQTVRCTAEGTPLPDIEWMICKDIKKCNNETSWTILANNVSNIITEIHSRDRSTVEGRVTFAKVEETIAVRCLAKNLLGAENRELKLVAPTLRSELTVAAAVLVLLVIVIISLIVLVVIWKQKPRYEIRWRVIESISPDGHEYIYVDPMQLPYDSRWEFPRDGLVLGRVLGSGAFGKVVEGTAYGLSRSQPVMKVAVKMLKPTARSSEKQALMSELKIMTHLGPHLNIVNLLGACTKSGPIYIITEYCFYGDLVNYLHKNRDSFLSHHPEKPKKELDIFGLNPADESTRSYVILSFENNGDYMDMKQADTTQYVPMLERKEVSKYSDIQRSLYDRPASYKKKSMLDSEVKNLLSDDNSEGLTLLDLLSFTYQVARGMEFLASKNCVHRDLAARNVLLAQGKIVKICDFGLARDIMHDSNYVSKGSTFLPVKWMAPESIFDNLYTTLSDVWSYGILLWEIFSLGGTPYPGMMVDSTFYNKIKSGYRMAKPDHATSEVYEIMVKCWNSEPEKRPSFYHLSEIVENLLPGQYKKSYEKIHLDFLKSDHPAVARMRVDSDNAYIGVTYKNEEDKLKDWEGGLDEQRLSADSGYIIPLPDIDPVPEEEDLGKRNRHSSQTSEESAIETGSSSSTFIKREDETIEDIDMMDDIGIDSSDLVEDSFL
Serine/threonine-protein kinase 10 (Homo sapiens), sequence (O94804 whole entry, looked up): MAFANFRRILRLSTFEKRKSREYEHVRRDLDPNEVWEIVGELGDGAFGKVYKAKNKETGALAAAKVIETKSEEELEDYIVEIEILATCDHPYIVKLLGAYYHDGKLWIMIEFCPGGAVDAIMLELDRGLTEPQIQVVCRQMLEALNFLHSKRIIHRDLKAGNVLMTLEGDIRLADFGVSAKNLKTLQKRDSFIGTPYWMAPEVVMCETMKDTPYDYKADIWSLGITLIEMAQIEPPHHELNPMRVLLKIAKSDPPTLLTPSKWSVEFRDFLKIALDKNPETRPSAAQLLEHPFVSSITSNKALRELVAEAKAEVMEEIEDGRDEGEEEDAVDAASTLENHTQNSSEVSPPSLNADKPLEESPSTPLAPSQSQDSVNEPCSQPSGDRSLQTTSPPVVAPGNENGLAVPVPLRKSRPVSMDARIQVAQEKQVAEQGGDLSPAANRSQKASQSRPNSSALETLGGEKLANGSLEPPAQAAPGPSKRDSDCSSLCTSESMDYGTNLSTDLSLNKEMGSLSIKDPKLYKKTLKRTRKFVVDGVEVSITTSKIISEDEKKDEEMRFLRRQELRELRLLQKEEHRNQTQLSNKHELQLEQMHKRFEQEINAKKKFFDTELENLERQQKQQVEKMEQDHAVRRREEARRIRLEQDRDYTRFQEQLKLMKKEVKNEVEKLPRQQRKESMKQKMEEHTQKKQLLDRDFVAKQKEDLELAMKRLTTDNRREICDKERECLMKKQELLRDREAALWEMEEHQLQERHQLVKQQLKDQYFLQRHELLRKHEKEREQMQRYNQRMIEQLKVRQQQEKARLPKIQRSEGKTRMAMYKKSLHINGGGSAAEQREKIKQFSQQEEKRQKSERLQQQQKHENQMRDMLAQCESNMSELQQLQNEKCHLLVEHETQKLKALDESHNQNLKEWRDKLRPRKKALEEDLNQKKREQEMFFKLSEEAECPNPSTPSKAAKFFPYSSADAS
5'-AMP-activated protein kinase catalytic subunit alpha-2 (Homo sapiens), sequence (P54646 whole entry, looked up): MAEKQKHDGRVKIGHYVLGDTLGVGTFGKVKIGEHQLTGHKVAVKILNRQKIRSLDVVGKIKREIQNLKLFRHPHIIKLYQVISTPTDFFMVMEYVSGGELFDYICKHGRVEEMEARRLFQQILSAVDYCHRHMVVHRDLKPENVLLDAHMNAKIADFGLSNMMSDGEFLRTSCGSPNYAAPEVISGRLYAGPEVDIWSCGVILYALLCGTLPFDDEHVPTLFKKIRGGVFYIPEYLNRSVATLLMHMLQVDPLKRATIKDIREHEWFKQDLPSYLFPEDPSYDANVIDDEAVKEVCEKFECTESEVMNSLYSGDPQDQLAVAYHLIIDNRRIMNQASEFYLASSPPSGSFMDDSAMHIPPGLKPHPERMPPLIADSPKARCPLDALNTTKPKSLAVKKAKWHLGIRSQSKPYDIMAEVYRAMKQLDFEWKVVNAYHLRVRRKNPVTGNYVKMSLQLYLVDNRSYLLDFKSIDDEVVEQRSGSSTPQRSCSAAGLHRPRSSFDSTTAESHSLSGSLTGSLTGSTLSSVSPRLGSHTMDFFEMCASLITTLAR
Myosin light chain kinase 2, skeletal/cardiac muscle (Homo sapiens), sequence (Q9H1R3 whole entry, canonical isoform): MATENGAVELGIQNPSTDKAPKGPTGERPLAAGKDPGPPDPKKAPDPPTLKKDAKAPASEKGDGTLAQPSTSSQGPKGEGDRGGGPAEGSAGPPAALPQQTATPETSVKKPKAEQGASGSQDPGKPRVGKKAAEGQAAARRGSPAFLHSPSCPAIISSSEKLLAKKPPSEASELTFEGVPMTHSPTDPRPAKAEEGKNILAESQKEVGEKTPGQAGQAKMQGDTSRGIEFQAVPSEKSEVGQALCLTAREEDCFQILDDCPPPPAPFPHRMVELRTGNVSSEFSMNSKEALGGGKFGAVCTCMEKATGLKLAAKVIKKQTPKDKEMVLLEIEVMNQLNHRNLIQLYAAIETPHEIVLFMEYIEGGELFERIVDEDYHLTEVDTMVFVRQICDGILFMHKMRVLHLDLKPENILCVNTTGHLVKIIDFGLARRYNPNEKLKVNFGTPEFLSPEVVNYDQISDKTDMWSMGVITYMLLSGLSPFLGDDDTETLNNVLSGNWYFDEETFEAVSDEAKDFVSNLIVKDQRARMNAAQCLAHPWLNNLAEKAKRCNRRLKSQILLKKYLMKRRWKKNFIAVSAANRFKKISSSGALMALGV
Protein kinase C delta type (Homo sapiens), sequence (Q05655 whole entry, looked up): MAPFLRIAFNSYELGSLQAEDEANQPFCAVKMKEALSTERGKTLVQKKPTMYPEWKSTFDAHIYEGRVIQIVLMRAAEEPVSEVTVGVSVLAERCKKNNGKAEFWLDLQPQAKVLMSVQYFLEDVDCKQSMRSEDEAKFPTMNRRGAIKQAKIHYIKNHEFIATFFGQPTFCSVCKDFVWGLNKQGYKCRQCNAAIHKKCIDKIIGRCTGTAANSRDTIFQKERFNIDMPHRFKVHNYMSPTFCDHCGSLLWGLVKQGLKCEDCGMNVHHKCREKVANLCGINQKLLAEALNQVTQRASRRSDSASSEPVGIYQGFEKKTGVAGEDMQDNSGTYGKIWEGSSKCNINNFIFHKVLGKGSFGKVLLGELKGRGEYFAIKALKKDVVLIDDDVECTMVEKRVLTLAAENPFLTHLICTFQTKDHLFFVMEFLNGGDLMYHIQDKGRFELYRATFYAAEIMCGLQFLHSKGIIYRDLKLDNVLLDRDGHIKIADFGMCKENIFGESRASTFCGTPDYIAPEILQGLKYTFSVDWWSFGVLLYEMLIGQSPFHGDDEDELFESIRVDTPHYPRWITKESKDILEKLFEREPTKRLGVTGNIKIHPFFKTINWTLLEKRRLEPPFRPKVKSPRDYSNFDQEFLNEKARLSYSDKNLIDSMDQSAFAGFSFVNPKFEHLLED
Serine/threonine-protein kinase MARK2 (Homo sapiens), sequence (Q7KZI7 whole entry): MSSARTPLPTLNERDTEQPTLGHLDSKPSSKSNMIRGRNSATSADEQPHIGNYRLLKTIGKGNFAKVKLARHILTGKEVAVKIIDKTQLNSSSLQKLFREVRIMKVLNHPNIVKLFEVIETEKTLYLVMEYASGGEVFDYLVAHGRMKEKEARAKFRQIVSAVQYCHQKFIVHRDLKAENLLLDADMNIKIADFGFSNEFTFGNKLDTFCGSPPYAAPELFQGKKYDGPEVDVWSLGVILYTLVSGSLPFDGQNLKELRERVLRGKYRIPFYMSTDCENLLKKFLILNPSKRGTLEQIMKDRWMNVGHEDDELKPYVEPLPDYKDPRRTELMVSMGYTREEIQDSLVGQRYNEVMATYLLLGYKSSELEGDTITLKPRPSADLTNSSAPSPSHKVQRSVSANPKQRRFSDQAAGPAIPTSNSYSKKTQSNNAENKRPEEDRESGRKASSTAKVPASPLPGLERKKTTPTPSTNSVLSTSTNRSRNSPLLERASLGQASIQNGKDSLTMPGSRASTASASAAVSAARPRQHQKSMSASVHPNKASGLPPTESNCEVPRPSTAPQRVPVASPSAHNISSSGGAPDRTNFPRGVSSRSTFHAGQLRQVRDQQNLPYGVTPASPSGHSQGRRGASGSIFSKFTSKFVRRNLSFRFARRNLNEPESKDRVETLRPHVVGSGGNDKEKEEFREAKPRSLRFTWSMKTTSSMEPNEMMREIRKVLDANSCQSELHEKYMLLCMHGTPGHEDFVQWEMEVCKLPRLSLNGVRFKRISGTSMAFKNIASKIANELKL

C=CC(=O)Nc1cc(-n2c(=O)ccc3cnc4ccc(-c5ccc(NS(C)(=O)=O)cc5)cc4c32)ccc1C
Activity [1]: 93%
Activity [2]: 98%
Activity [3]: 92%
Activity [4]: 0.32
Activity [5]: 88%
Activity [6]: 85%
Activity [7]: 87%
Activity [8]: 84%
Activity (RV-1): Active
Activity [9]: 93%
Activity [10]: 75%
Activity [11]: 88%
Activity [12]: 94%
Activity [13]: 80%
Activity [14]: 67%
Activity [15]: 86%
Activity [16]: 97%
Activity [17]: 98%
Activity [18]: 69%
Activity [19]: 41%
Activity [20]: 92%
Activity [21]: 80%
Activity [22]: 92%
IC50 (BaF3): > 10 µM
inhibition [23]: Active
Activity [24]: 92%
Activity [25]: 92%
Activity [26]: 74%
Activity [27]: 68%
Activity [28]: 94%
inhibition [29]: inactive
